In patent US8415285B2, “Composition for the prevention or removal of insoluble salt deposits” (Ecover Coordination Center N.V., priority 2010, dated 2013):
Read-outs that look alike come from different tables or passages of the source.

What was measured:
[1] = labeling according to EU legislation; cited from earlier work
[2] = cited from earlier work
[3] = Descaling efficiency upon short exposure, weight loss of marble plates (IKW protocol); conditions: for Average weight loss (g), plates: Example 1, 5% active matter acid solution, 10 seconds immersion + 10 minutes, five plates; for Weight loss plates: Example 4, acid levels 0, 1.5 or 3, solutions prepared 20 hours prior; for Weight difference plates: Example 3, short contact
Protocol: SÖFW-journal, 120, Jahrgang 13:94) for their descaling efficiency upon short exposure.
For each product, five oven-dry marble plates (Carrara marble, 75×150×5 mm, bought at Van Houten Malle) are weighted on a high precision balance and subsequently completely immersed during 10 seconds in a glass beaker holding 950 milliliter of a 5% active matter acid solution. The plates are then removed from the liquor, and put in upright position for 10 minutes during which the acid is allowed for further action. […] The weight loss due to the exposure to the acid is used as a measure for its descaling performance.
(§1) Solutions were allowed to stand until complete dissolution of the lactide before the descaling test was started.
(§2) The required volumes for filling the beakers were prepared as 3% active matter solutions, 20 hours prior to the test.

[4] = Descaling efficiency upon prolonged contact, weight loss of immersed marble blocks (IPP protocol); conditions: for Average weight loss (g), blocks: Example 2, 24 hours immersion in the acid solution, duplicate; for Weight loss blocks: Example 4, acid levels 0, 1.5 or 3
Protocol: as §1, §2

[5] = cited from earlier work; remark: listed apart in the source
[6] = footnote b: as % anhydrous at 25° C.; cited from earlier work
[7] = Dissolution and pH development of lactide in water; format: physicochemical
From the text: Slow-release lactide is commercially available from the company Galactic, Belgium.

[8] = Descaling efficiency upon prolonged contact, weight loss of immersed marble blocks (IPP protocol); conditions: Example 3, 5% solution

O=C(O)CC(=O)O [malonic]
label [1]: Xn

O=C(O)CCCC(=O)O [glutaric]
Solubility water 20° C. ([2]; pH 7, 20° C.): 50% | label [1]: Xi

CC(O)C(=O)O (stereo not drawn) [Lactic acid]
Average weight loss (g), plates [3]: 0.1278 g | Weight loss plates [3]: 0.09616 g | Average weight loss (g), blocks [4]: 9.06 g | Weight loss blocks ([4]; prolonged contact): 5.2176 g | label [1]: Xi

NS(=O)(=O)O [sulfamic]
pKa (first value) [5]: 0.1 | label [1]: C, Xn, N

O=C(O)[C@H](O)[C@@H](O)[C@H](O)[C@H](O)CO [gluconic]
Solubility water 20° C. ([2]; pH 7): >50% | label [1]: Xn

O=C(O)CC(O)C(=O)O (stereo not drawn) [Malic acid]
Average weight loss (g), plates [3]: 0.1457 g | Solubility calcium salt as % anhydrous at 25° C. [6]: 0.8%^b | Average weight loss (g), blocks [4]: 8.735 g | Solubility water 20° C. ([2]; pH 7, 20° C.): >80% | label [1]: Xn

O=C(O)/C=C\C(=O)O [maleic]
Solubility water 20° C. ([2]; pH 7): >40%

CC1OC(=O)C(C)OC1=O (stereo not drawn) [slow-release lactide]
pH of 0.1 w/v % solution after 5 minutes ([7]; demineralized water, 25° C., 5 minutes): 3.7 | pH of 0.1 w/v % solution after 10 minutes ([7]; demineralized water, 25° C., 10 minutes): 3.2 | pH of 0.1 w/v % solution after 120 minutes ([7]; demineralized water, 25° C., 120 minutes): 2.5

O=C(O)/C=C/C(=O)O [fumaric]
Solubility water 20° C. ([2]; pH 7): 64%

CC(=O)O [Acetic]
label [1]: C, Xn

O=C(O)CO [Glycolic acid]
Average weight loss (g), plates [3]: 0.1629 g | Weight loss plates [3]: 0.1115 g | Average weight loss (g), blocks [4]: 2.629 g | Weight loss blocks ([4]; prolonged contact): 4.2873 g | label [1]: C, Xn

O=C(O)C(=O)O [oxalic]
label [1]: C, Xn

O=S(=O)(O)O [sulfuric]
label [1]: C, T

O=CO [formic]
label [1]: C, Xn

O=C(O)CCC(=O)O [Succinic acid]
Average weight loss (g), plates [3]: 0.1376 g | Weight difference plates ([3]; 5% solution): 0.0899 g | Weight loss plates [3]: 0.08734 g | Average weight loss (g), blocks [4]: 9.304 g | Weight loss blocks ([4]; prolonged contact): 4.705 g | label [1]: C, Xn | Weight difference blocks [8]: 7.2479 g

O=C(O)CC(O)(CC(=O)O)C(=O)O [Citric acid]
Average weight loss (g), plates [3]: 0.105 g | Weight difference plates ([3]; 5% solution): 0.0782 g | Weight loss plates [3]: 0.05778 g | Average weight loss (g), blocks [4]: 3.8461 g | Weight loss blocks ([4]; prolonged contact): 2.2648 g | Weight difference blocks [8]: 3.3186 g

CC1OC(=O)C(C)OC1=O (stereo not drawn) [Lactide, 3,6-Dimethyl-1,4-dioxane-2,5-dione]
Weight difference plates ([3]; 3% solution): 0.1129 g | Weight difference plates ([3]; 5% solution): 0.1365 g | Time for complete dissolution ([7]; room temperature, while stirring): at least 3 hours | Weight difference blocks ([4]; Example 3, 3% solution, prolonged contact): 2.9844 g | Solubility water 20° C. ([2]; pH 7, 20° C.): Insol.^a | label [1]: Xi | Weight difference blocks [8]: 6.0445 g
